Columns and labels:
[1] = absolute recovery over vacuum-assisted evaporative concentration; higher = better recovery; details: enrichment method: VEC
Summary of the method: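 Water samples (influent 6 mL, effluent 15 mL, surface and nanopure water 60 mL) were spiked with standards before concentration, after concentration or not at all, at 200 ng/L (nanopure/surface) or 1000 ng/L (wastewater), with class- and compound-specific adjustments. They were evaporated at 55 °C and 20 mbar to about 0.3 mL, brought to 0.4 mL and centrifuged. Internal standards were added afterwards and samples were analysed by LC-HRMS/MS. Absolute recovery was (response ratio pre − unspiked)/(post − unspiked) × 100, using averages of ≥ 2 replicates.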

[2] = absolute recovery over mixed-bed multilayer solid-phase extraction; higher = better recovery; details: enrichment method: SPE
Summary of the method: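 Wastewater (100–250 mL, pH 6.5, glass-fibre filtered) and unfiltered nanopure water (1000 mL) were extracted on a three-layer mixed-bed cartridge, with standards spiked before extraction, after it, or not at all at 1000 ng/L and 200 ng/L respectively, apart from some classes. Internal standards were then added for liquid chromatography with high-resolution tandem mass spectrometry in both ionisation modes. Absolute recovery compares background-corrected response ratios of pre- and post-spiked samples across at least two replicates.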

[3] = LC retention time (Atlantis T3, 5-95% MeOH gradient, 0.1% formic acid); higher = more retained / less polar
Summary of the method: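 Retention times were recorded for reference standards on a polar reversed-phase C18 column. The standards were of purity ≥ 95%, and the Atlantis T3 column (3 × 150 mm, 3 μm) was run at 0.3 mL/min with a gradient from 5 to 95% methanol over 17.5 min, both water and methanol containing 0.1% formic acid. Detection used high-resolution tandem mass spectrometry on a QExactive Plus, with positive and negative electrospray in separate runs, and peaks were integrated in TraceFinder (5 ppm tolerance, at least three points per peak) before being checked by hand.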

absolute recovery ([1]; wastewater effluent) [%] | absolute recovery ([1]; wastewater influent) [%] | absolute recovery ([2]; nanopure water) [%] | absolute recovery ([2]; surface water) [%] | absolute recovery ([2]; wastewater effluent) [%] | absolute recovery ([2]; wastewater influent) [%] | LC retention time [3] [min] | SMILES
103 | 96.1 | 95.2 | 91.3 | 86.2 | 89.8 | 12.1 | Cc1cc(C)nc([N-]S(=O)(=O)c2ccc(N)cc2)n1 [Sulfamethazin]
105 | 94 | 91.4 | 100 | 90.8 | 84.5 | 11.6 | O=C(NCCN1CCOCC1)c1ccc(Cl)cc1 [Moclobemid]
104 | 97.2 | 95.4 | 91.9 | 68.2 | 82.4 | 15.4 | Nc1c(I)c(N)c(I)c(C(=O)[O-])c1I [3-5-Diamino-2-4-6-triiodobenzoic-acid]
 | 98.5 | 102 |  |  |  | 20.8 | O=C([O-])Cc1ccccc1Nc1c(Cl)cccc1Cl [Diclofenac]
51.4 | 56.6 | 100 | 111 | 100 | 77.4 | 20.7 | COc1ccc(C(=O)c2ccccc2)c(O)c1 [Benzophenon-3 (=2-Hydroxy-4-methoxybenzophenon)]
105 | 101 | 96.3 | 93.3 | 94.1 | 98.9 | 18.3 | CNC(=O)Nc1ccc(C(C)C)cc1 [Isoproturon-monodemethyl (=1-(4-Isoprophenyl)-3-methylurea)]
98.5 |  | 84.5 |  | 118 |  | 21 | CC(C)Cc1ccc(C(C)C(=O)[O-])cc1 (stereo unspecified) [Ibuprofen]
99.7 |  | 96.4 |  | 94.5 |  | 12.5 | Cn1c(=O)c2c(ncn2C)n(C)c1=O [Coffein]
108 | 93 | 76.1 | 36.1 | 78.5 | 77 | 16.6 | O=C1CC(C(=O)[O-])CC(=O)C1=C([O-])C1CC1 (stereo unspecified) [Trinexapac (free acid)]
100 | 105 | 93.7 | 103 |  | 81.2 | 15.1 | C[N+]1([O-])CCN2c3ccccc3Cc3ccccc3C2C1 (stereo unspecified) [Mianserin-N-Oxide]
103 |  | 95.8 | 101 | 91 |  | 19.6 | CCCCC(=O)N(Cc1ccc(-c2ccccc2-c2nnn[n-]2)cc1)C(C(=O)[O-])C(C)C (stereo unspecified) [Valsartan]
108 | 96 | 99.1 | 97.9 | 90.7 | 94 | 14.5 | CC(=O)Nc1ccc(S(=O)(=O)[N-]c2cc(C)on2)cc1 [N4-Acetyl-Sulfamethoxazol]
86.4 | 102 | 59.4 | 111 | 88.5 | 61.3 | 21.8 | CSc1nc2cc(Oc3cccc(Cl)c3Cl)c(Cl)cc2[nH]1 [Triclabendazol]
104 |  | 75.9 | 68.2 | 74 | 74.9 | 11.5 | CCn1cc(C(=O)[O-])c(=O)c2cc(F)c(N3CC[NH2+]CC3)cc21 [Norfloxacin]
94.9 | 141 | 109 | 34.2 | 90.9 | 100 | 6.89 | Cc1cncc(C(=O)[O-])c1 [5-Methylpyridine-3-carboxylic-acid]

The remaining lines, values behind:

SMILES | absolute recovery ([1]; wastewater effluent) [%] | absolute recovery ([1]; wastewater influent) [%] | absolute recovery ([2]; nanopure water) [%] | absolute recovery ([2]; surface water) [%] | absolute recovery ([2]; wastewater effluent) [%] | absolute recovery ([2]; wastewater influent) [%] | LC retention time [3] [min]
CCNc1nc(Cl)nc(NC(C)(C)C)n1 [Terbutylazin] | 95 | 91.9 | 94.9 | 95 | 93.8 | 93.4 | 19.7
COc1ccc(NC(=O)N(C)C)cc1Cl [Metoxuron] | 104 | 98.1 | 104 | 92.8 | 90.2 | 129 | 16
O=c1[nH]c2c(c(=O)n1C1CCCCC1)CCC2 [Lenacil] | 102 | 103 | 93.2 | 87.6 | 92 | 92.4 | 18.6
CCNc1nc(Cl)nc(NCC)n1 [Simazin] | 98.3 | 106 | 94.2 | 94.4 | 88.3 | 94.9 | 17.2
C[NH+](C)CCC=C1c2ccccc2COc2ccc(CC(=O)[O-])cc21 [Olopatadine] | 100 | 102 | 82.8 | 86.5 | 91.2 | 84.9 | 14.9
c1cncc(C2CCC[NH2+]2)c1 (stereo unspecified) [Nornicotine] | 111 | 118 | 65.4 |  | 47.9 | 43.6 | 4.38
CC(=O)Nc1ccc(O)cc1 [Paracetamol (=3-Acetamidophenol)] | 101 |  | 76.7 |  | 79.1 |  | 10.3
CC(=O)OCC(=O)C1(O)C(C)CC2C3CCC4=CC(=O)C=CC4(C)C3(F)C(O)CC21C (stereo unspecified) [Betamethasone 21-acetate C] | 92.7 | 85.2 | 93.1 | 89.4 | 89 | 98.3 | 19.6
CC([NH3+])Cc1ccccc1 (stereo unspecified) [Amphetamin] | 97.8 | 85.5 | 97.7 | 85.5 | 87.4 | 91.8 | 10.4
CCOc1cc(CC(=O)NC(CC(C)C)c2ccccc2N2CCCCC2)ccc1C(=O)[O-] (stereo unspecified) [Repaglinide] | 120 | 95.3 | 95.4 | 98.7 | 102 | 94.8 | 19.3
COC(=O)c1ccccc1S(=O)(=O)[N-]C(=O)N(C)c1nc(C)nc(OC)n1 [Tribenuron-methyl] | 124 | 119 |  | 24.9 | 38 |  | 18.1
O=C([O-])c1cc(Oc2ccc(Cl)cc2Cl)ccc1[N+](=O)[O-] [Bifenox-acid] | 104 | 108 | 75.6 | 63.6 | 77 | 124 | 23.4
O=C(Cc1ccccc1)NC(=NOCC1CC1)c1c(C(F)(F)F)ccc(F)c1F [Cyflufenamid] | 95.4 | 117 | 91.9 | 106 | 106 | 84.3 | 20.9
C=CC1=C(C(=O)[O-])N2C(=O)C([NH3+])C2SC1 (stereo unspecified) [7-Amino-3-vinyl-3-cephem-4-carboxylic-acid] | 95.6 | 96.5 | 47.7 |  |  | 37.9 | 6.11
CCNc1nc(O)nc(NC(C)C)n1 [Atrazin-2-Hydroxy] | 102 | 102 | 97.8 | 98 | 94.5 | 90 | 11.4
FC(F)(F)c1cccc(N2CC[NH2+]CC2)c1 [1-(3-Trifluoromethylphenyl)-piperazine] | 97.4 | 93 | 66 | 71.9 | 66.4 | 69.9 | 13.6
CC(C)N(C(=O)COc1nnc(C(F)(F)F)s1)c1ccc(F)cc1 [Flufenacet] | 114 | 95.3 | 100 | 95.9 | 97.5 | 83.5 | 20.1
C[NH+]1CCN2c3ccccc3Cc3ccccc3C2C1 (stereo unspecified) [Mianserin] | 104 | 108 | 90.1 |  | 95.7 | 68.4 | 14.5
CSc1nc(NC2CC2)nc(NC(C)(C)C)n1 [Irgarol] | 98 | 95.5 | 101 | 98.8 | 97 | 91.2 | 19
Nc1ccn(C2OC(CO)C(O)C2(F)F)c(=O)n1 (stereo unspecified) [Gemcitabin] | 88.8 | 12.8 | 86.7 | 94.5 | 94.3 | 91.1 | 6.58
Cc1nn(-c2cc(NS(C)(=O)=O)c(Cl)cc2Cl)c(=O)n1C(F)F [Sulfentrazon] | 104 | 107 | 97.5 | 100 | 92.9 | 88.9 | 17.3
C[NH+]1CCC23c4c5ccc(O)c4OC2C(O)C=CC3C1C5 (stereo unspecified) [Morphin] | 104 | 99.7 | 81.1 | 91.3 | 87.9 | 89.6 | 7.4
O=[N+]([O-])C(Br)(CO)CO [Bronopol] | 52.8 |  | 13.9 | 6.4 | 7 | 7.8 | 9.24
CON=C(C(=O)OC)c1ccccc1CON=C(C)c1cccc(C(F)(F)F)c1 [Trifloxystrobin] | 77.4 | 97.5 |  | 97.3 | 88.9 | 99.8 | 21.4
C[NH+]1C2CCC1CC(OC(=O)C(CO)c1ccccc1)C2 (stereo unspecified) [Atropine] | 106 | 99.7 | 94.2 | 93.2 | 90.9 | 91.5 | 11.1
[O-][n+]1nc(-n2ccnc2)nc2ccc(Cl)cc21 [Triazoxide] | 105 | 89 | 87.3 | 91.5 | 87.4 | 92.3 | 17.5
CCCN(CCC)c1c([N+](=O)[O-])cc(S(N)(=O)=O)cc1[N+](=O)[O-] [Oryzalin] | 105 | 91.7 | 97 | 102 | 94 | 109 | 20.2
CCC(=O)OC(Cc1ccccc1)(c1ccccc1)C(C)C[NH+](C)C (stereo unspecified) [Propoxyphene] | 108 | 110 | 85.3 | 94.6 | 91.5 | 72.4 | 15.6

Source: the supplement of paper PMC6470124
